Experimental data taken from patent US20260207759A1, “COMPOSITION OF CD40-BINDING MOLECULE AND PHARMACEUTICAL USE THEREOF” (SUZHOU SUNCADIA BIOPHARMACEUTICALS CO., LTD., priority 2022, published 2026).

Legend:
[1] = tested on: human CD40 transgenic mice; test: Mouse skin graft rejection model (anti-CD40-ADC); assay type: in vivo; conditions: 10 mpk ip, budesonide 0.12 mg/kg QD, dexamethasone 20 mpk QD
From the text: Male Balb/c mice, 6 weeks old, were purchased from the Laboratory Animal Management Department, Shanghai Institute of Planned Parenthood Research.
(§1) On day −2 of the experiment, the mice were intraperitoneally injected with the CD40 antagonistic antibody, anti-CD40-ADC, or glucocorticoid. On day 0 of the experiment, donor Balb/c mice and C57BL6/J mice were anesthetized with 4% chloral hydrate. The tails of the donor mice were removed, and full circles of skin, 1 cm in length, were isolated from the tails. The hair on the acceptor mice's back was removed, and an incision was made along the skin layer. An equal area of skin was removed while preserving the back fat and connective tissue. The donor skin was placed on the acceptor mice's incision site, and the incision was closed with glue. The mice were then placed back in cages to recover.
The mice were dosed according to the administration regimens in Table 27. After 7 days of recovery, the mouse skin survival was observed daily and rejection scores were recorded.

[2] = tested on: human CD40 transgenic mice; test: Mouse skin graft rejection model (antibodies, tacrolimus combination); assay type: in vivo; conditions: FK506 3 mpk, alone or combined
From the text: Male Balb/c mice, 6 weeks old, were purchased from the Laboratory Animal Management Department, Shanghai Institute of Planned Parenthood Research. Housing environment: SPF; certification number: 20180006023393.
as §1, with “On day-2” for “On day −2”, “with tacrolimus FK506 or” for “with the”, “antagonistic antibodies.” for “antagonistic antibody, anti-CD40-ADC, or glucocorticoid.”
The mice were dosed according to the administration regimens in Table 16. After 7 days of recovery, the mouse skin survival was observed daily and rejection scores were recorded.

SMILES | Skin graft survival rate (%), 10 days [1] [%] | Skin graft survival rate (%), 15 days [1] [%] | Skin graft survival rate (%), 20 days [1] [%] | Skin graft score, 10 days ([1]; score 3 to 0) | Skin graft score, 15 days ([1]; score 3 to 0) | Skin graft score, 20 days ([1]; score 3 to 0) | Day-15 skin graft survival rate (%) ([2]; Table 20: antibody 10 mpk) | Skin graft score, 8 days ([2]; Table 22: 2F12-L4H2 10 mpk) | Skin graft score, 10 days ([2]; Table 22: 2F12-L4H2 10 mpk) | Skin graft score, 15 days ([2]; Table 22: 2F12-L4H2 10 mpk) | Skin graft score, 20 days ([2]; Table 22: 2F12-L4H2 10 mpk)
C[C@@H]1C[C@H]2[C@@H]3CCC4=CC(=O)C=C[C@]4(C)[C@@]3(F)[C@@H](O)C[C@]2(C)[C@@]1(O)C(=O)CO [Dexamethasone] | 88.9 | 88.9 | 66.7 | 2.33 | 2 | 1.56 | – | – | – | – | –
C=CC[C@@H]1/C=C(\C)C[C@H](C)C[C@H](OC)[C@H]2O[C@@](O)(C(=O)C(=O)N3CCCC[C@H]3C(=O)O[C@H](/C(C)=C/[C@@H]3CC[C@@H](O)[C@H](OC)C3)[C@H](C)[C@@H](O)CC1=O)[C@H](C)C[C@@H]2OC [FK506, tacrolimus] | – | – | – | – | – | – | 16.7 | 2.5 | 1.5 | 0.5 | 0
